Laboratory results: ChEMBL document CHEMBL4229505, “4-Aminophenyl acetamides and propanamides as potent transient receptor potential vanilloid 1 (TRPV1) ligands” (Bioorg Med Chem, 2018)
pIC50, pKi: −log10 of the molar value. Active and inactive are the calls of the source. No cut-off for these calls is given here.

Columns and labels:
[1] = molecular target: T1, Transient receptor potential cation channel subfamily V member 1 (Homo sapiens, UniProt Q8NER1); test: Partial agonist activity at human TRPV1 expressed in CHO cells assessed as intracellular calcium accumulation by Fluo-4 dye based FLIPR assay; type: cell-based
[2] = molecular target: T1, Transient receptor potential cation channel subfamily V member 1; test: Antagonist activity at human TRPV1 expressed in CHOK1 cells assessed as reduction in capsaicin-induced intracellular calcium level preincubated for 6 mins followed by capsaicin addition by Fluo-4 dye based FLIPR assay; type: cell-based; settings: for pKi: read-out: Ki
[3] = molecular target: T1, Transient receptor potential cation channel subfamily V member 1; test: Antagonist activity at human TRPV1 expressed in CHOK1 cells assessed as reduction in NADA-induced intracellular calcium level preincubated with cells followed by NADA addition measured after 5 mins by Fluo-4 dye based FLIPR assay; type: cell-based
[4] = molecular target: T1, Transient receptor potential cation channel subfamily V member 1; test: Antagonist activity at human TRPV1 expressed in CHOK1 cells assessed as reduction in low pH-induced receptor activation by measuring decrease in intracellular calcium level preincubated with cells for 5 mins followed by incubation under pH 6 to 6.3 condition by Fluo-4 dye based FLIPR assay; type: cell-based
[5] = molecular target: T1, Transient receptor potential cation channel subfamily V member 1; test: Antagonist activity at human TRPV1 expressed in CHOK1 cells assessed as reduction in heat-induced intracellular calcium level preincubated with cells for 5 mins followed by incubation under 45 degC by Fluo-4 dye based FLIPR assay; type: cell-based
[6] = tested on: Mus musculus; test: Anti-hypothermic activity in NMRI mouse assessed as inhibition of capsaicin-induced […] in body temperature at 10 mg/kg, po pretreated for 15 mins followed by capsaicin treatment measured up to 120 mins relative to control; type: functional
[7] = tested on: Mus musculus; test: Anti-hypothermic activity in NMRI mouse assessed as inhibition of capsaicin-induced […] in body temperature at 3 mg/kg, po pretreated for 15 mins followed by capsaicin treatment measured up to 120 mins relative to control; type: functional
[8] = tested on: Mus musculus; test: Induction of hyperthermic effect in NMRI mouse assessed as increase in body temperature at 3 mg/kg, po; type: organism-based; settings: in vivo
[9] = molecular target: T1, Transient receptor potential cation channel subfamily V member 1; test: Agonist activity at human TRPV1 expressed in CHO cells assessed as intracellular calcium accumulation by Fluo-4 dye based FLIPR assay; type: cell-based

T1 sequence (Q8NER1 whole entry): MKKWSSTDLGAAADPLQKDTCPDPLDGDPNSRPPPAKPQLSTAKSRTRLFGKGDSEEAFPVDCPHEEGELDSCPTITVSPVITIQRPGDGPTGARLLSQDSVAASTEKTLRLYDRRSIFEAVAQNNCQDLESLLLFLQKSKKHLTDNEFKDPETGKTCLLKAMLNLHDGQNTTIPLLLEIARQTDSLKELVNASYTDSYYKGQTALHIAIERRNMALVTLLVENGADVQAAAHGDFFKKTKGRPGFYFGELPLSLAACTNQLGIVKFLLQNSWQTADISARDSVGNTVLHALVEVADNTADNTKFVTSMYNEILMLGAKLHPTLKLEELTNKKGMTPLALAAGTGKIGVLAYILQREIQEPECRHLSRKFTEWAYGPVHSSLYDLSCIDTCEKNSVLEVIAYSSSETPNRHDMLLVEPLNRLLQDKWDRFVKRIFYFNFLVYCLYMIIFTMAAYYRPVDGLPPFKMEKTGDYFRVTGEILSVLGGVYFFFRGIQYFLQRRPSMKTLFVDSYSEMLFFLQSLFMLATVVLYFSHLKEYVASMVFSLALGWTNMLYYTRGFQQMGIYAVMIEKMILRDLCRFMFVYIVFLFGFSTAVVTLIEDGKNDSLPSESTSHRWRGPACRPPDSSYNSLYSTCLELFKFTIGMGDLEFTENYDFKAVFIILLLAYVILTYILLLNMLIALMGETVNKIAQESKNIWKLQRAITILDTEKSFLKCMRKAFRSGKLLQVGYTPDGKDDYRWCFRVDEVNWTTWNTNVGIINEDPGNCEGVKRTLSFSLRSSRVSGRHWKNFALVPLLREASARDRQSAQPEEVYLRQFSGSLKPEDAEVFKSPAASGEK

`COc1cc(C(C)C(=O)NCc2ccc(C(F)(F)F)nc2N2CCC(C)CC2)cc(F)c1N` (centres undefined) was tested, and the Activity [1] was “Active”.

With `COc1cc(C(C)C(=O)NCc2ccc(C(F)(F)F)nc2N2CCC(C)CC2)cc(OC)c1N` (centres undefined) the pKi [2] was 7.68.

`COc1ccc(Nc2ccc(C(C)C(=O)NCc3ccc(C(F)(F)F)nc3N3CCC(C)CC3)cc2)cc1` (centres undefined) was tested, and the Activity [1] was “Active”.

For `CC1CCN(c2nc(C(F)(F)F)ccc2CNC(=O)Cc2cc(Cl)c(N)c(Cl)c2)CC1`, the pKi [3] was 9.15 to 10.00, the pIC50 [4] was 6.80 and the pIC50 [5] was 7.89. The inhibition in vivo at 10 mg/kg [6] was 128%, the inhibition in vivo at 3 mg/kg [7] was 57% and the deltaT [8] was > 1 °C. The pKi [2] was 9.52.

With `CC1CCN(c2nc(C(F)(F)F)ccc2CNC(=O)C(C)c2ccc(N)c(F)c2)CC1` (centres undefined) the Activity [9] was “Active”.

For `CC1CCN(c2nc(C(F)(F)F)ccc2CNC(=O)C(C)c2ccc(Nc3ccccc3)cc2)CC1` (centres undefined), the Activity [9] was “Active”.

`CC1CCN(c2nc(C(F)(F)F)ccc2CNC(=O)C(C)c2cc(Cl)c(N)c(Cl)c2)CC1` (centres undefined) showed a pKi [2] of 8.62.

Work on `CC1CCN(c2nc(C(F)(F)F)ccc2CNC(=O)C(C)c2ccc(NC(=O)C(C)C)c(F)c2)CC1` (centres undefined) yielded a pKi [2] of 7.58.

For `CC1CCN(c2nc(C(F)(F)F)ccc2CNC(=O)C(C)c2ccc(NC(=O)C(C)(C)C)c(F)c2)CC1` (centres undefined), the pKi [2] was 7.28.

In the case of `CC1CCN(c2nc(C(F)(F)F)ccc2CNC(=O)C(C)c2ccc(N)c(N)c2)CC1` (centres undefined), the Activity [9] was “Active”.

In the case of `CC1CCN(c2nc(C(F)(F)F)ccc2CNC(=O)C(C)c2ccc(NC(=O)c3ccccc3)c(F)c2)CC1` (centres undefined), the pKi [2] was 8.13.

Work on `CC1CCN(c2nc(C(F)(F)F)ccc2CNC(=O)C(C)c2cc(O)c(N)c(F)c2)CC1` (centres undefined) yielded a pKi [2] of 8.28.

For `CC1CCN(c2nc(C(F)(F)F)ccc2CNC(=O)C(C)c2ccc(NC(=O)C3CC3)c(F)c2)CC1` (centres undefined), the pKi [2] was 7.70.

Molecule `CC1CCN(c2nc(C(F)(F)F)ccc2CNC(=O)C(C)c2ccc(Nc3ccc(Cl)cc3)cc2)CC1` (centres undefined) has a pKi [2] of 7.18.

In the case of `COc1cc(C(C)C(=O)NCc2ccc(C(F)(F)F)nc2N2CCC(C)CC2)ccc1N` (centres undefined), the Activity [9] was “Active”.

For `CC1CCN(c2nc(C(F)(F)F)ccc2CNC(=O)C(C)c2ccc(Nc3ccc(F)cc3)cc2)CC1` (centres undefined), the Ki [2] was “Not Active”.

`Cc1cc(C(C)C(=O)NCc2ccc(C(F)(F)F)nc2N2CCC(C)CC2)ccc1N` (centres undefined) was tested, and the Activity [9] was “Active”.

For `CC1CCN(c2nc(C(F)(F)F)ccc2CNC(=O)C(C)c2ccc(Nc3ccccn3)cc2)CC1` (centres undefined), the Activity [9] was “Active”.
